Test results published in publication PMC11042424, “Development of a First-in-Class RIPK1 Degrader to Enhance Antitumor Immunity” (Research Square, 2024).

Legend:
[1] = target: T1, nLuc-RIPK1 fusion protein (Homo sapiens, UniProt Q13546); assay: NanoBRET based in-cell RIPK1 target engagement
T1 construct: expressed in transfected cells
T1 sequence (Q13546 1-671): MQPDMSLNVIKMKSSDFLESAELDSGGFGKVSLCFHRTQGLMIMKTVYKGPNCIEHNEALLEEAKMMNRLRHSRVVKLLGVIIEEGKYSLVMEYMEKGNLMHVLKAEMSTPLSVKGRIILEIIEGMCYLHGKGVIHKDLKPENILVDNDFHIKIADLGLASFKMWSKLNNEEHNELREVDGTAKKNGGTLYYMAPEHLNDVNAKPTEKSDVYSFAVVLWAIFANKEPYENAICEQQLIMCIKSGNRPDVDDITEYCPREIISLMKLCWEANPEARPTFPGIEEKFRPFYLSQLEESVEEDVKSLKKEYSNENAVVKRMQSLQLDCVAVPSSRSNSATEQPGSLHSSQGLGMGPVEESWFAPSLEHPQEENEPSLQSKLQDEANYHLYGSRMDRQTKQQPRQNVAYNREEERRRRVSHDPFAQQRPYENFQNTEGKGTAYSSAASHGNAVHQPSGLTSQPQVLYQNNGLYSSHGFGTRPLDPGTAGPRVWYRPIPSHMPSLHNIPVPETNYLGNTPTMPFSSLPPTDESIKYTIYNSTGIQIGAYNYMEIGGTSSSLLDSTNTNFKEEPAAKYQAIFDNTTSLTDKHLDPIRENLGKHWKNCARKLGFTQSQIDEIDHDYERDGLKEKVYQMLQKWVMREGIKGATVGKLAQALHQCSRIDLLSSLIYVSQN
Procedure: Figure 2 LD4172, a RIPK1 PROTAC, induces potent and highly specific degradation of RIPK1 in a panel of cell lines. A, Chemical structures of RIPK1 PROTAC, LD4172, and its negative control, LD4172-NC. […] B, Quantification of RIPK1 levels in both Jurkat and B16F10 cells treated with LD4172 at indicated concentrations for 24 h, followed by Western blotting. C, DC50 and Dmax of LD4172 in various human and mouse cell lines. DC50, the drug concentration causing 50% protein degradation; Dmax, the maximum level of protein degradation. D, RIPK1 degradation kinetics induced by LD4172 treatment (1 μM) and resynthesis kinetics upon washout of LD4172 in both Jurkat and B16F10 cells. E, Quantification of D. The degradation half-life of RIPK1 induced by LD4172 (1 μM) is <2 h in Jurkat and B16F10 cells. […] F, NanoBRET based in-cell RIPK1 target engagement. HEK293 cells were transfected with a plasmid expressing nLuc-RIPK1 fusion protein for 24 h, followed by incubating with a RIPK1 NanoBRET tracer (500 nM) and different concentrations of LD4172 and LD4172-NC (n=3). G, Time-resolved fluorescence resonance energy transfer (TR-FRET) based biochemical binding assay for RIPK1. GST-tagged human RIPK1 (1 nM), Tb-labeled anti-GST antibody (0.3 nM), a RIPK1 TR-FRET tracer (350 nM) and different concentrations of LD4172 (n=3) were incubated for 2 hours, followed by TR-FRET measurements with an excitation wavelength at 340 nm and emission wavelengths at 495 and 520 nm. H, NanoBRET based in-cell assay for ternary complex formation. HEK293T cells were co-transfected with nLuc-RIPK1 and VHL-HaloTag plasmids for 24 h, followed by treatment with indicated concentrations of LD4172 or LD4172-NC (n=3). I, LD4172 induced RIPK1 degradation depends on ternary complex formation, neddylation and proteasome activity. Representative immunoblots of RIPK1 in both Jurkat and B16F10 cells. Cells were treated with RIPK1 inhibitor (T2I), VHL ligand, a neddylation inhibitor (MLN4924) or a proteasome inhibitor (Carfilzomib) at indicated concentrations for 4 hours, followed by LD4172 treatment for 4 hours. J, Proteome profiling of LD4172 induced protein degradation. MDA-MB- 231 cells were treated with LD4172 (200 nM) or LD4172-NC (200 nM) for 6 h (n=3). In total, ~10,000 proteins were quantified in the proteomics experiment. […] Blue dots represent kinases that are inhibited by the warhead of LD4172 but not degraded by LD4172.
To elucidate the formation of a binary complex during RIPK1 degradation, we developed a competitive NanoBRET (Nano-Bioluminescence Resonance Energy transfer)-based target engagement (TE) assay to quantify the binding between RIPK1 and LD4172 in cells[12],[13]. First, we developed a RIPK1 tracer by conjugating the LD4172 warhead T2I with a BODIPY-590 fluorescent dye, dubbed T2–590 (refer to Supporting Information for details). The dissociation equilibrium constant (Kd) between the tracer and RIPK1 was determined to be 0.5 μM by titrating the tracer in HEK293T cells expressing a nLuc-RIPK1 fusion protein. […] This is usually expected, considering that the large molecular weight of LD4172 may lead to poor cellular permeability.

RIPK1 and VHL = target: T2, RIPK1 and VHL (Homo sapiens, UniProt P40337+Q13546); assay: NanoBRET live-cell ternary complex assay; type: cell-based; conditions: HEK293 cells co-transfected with nLuc-RIPK1 and VHL-Halo
T2 construct: Addgene backbone 87075 (RIPK1 vector, made in house) N273A; host or cells: HEK293T
Procedure: Figure 2 LD4172, a RIPK1 PROTAC, induces potent and highly specific degradation of RIPK1 in a panel of cell lines. A, Chemical structures of RIPK1 PROTAC, LD4172, and its negative control, LD4172-NC. […] B, Quantification of RIPK1 levels in both Jurkat and B16F10 cells treated with LD4172 at indicated concentrations for 24 h, followed by Western blotting. C, DC50 and Dmax of LD4172 in various human and mouse cell lines. DC50, the drug concentration causing 50% protein degradation; Dmax, the maximum level of protein degradation. D, RIPK1 degradation kinetics induced by LD4172 treatment (1 μM) and resynthesis kinetics upon washout of LD4172 in both Jurkat and B16F10 cells. […] G, Time-resolved fluorescence resonance energy transfer (TR-FRET) based biochemical binding assay for RIPK1. […] In total, ~10,000 proteins were quantified in the proteomics experiment. […]
Human RIPK1 cDNA insert was cloned into pLenti6.2-ccdB-nLuc plasmid (87075, Addgene, a kind gift from Taipale Lab) using gateway cloning kit (11791020, Thermo) and standard protocol to obtain pLenti6.2-RIPK1-nLuc fusion vector. […] Immediately before reading the plate, prepare 4x concentrated NanoGlo nLuc substrate (N157, Promega) was prepared by diluting the stock into Opti-MEM 1,000-fold, and the NanoGlo substrate was then added into each well to bring the final concentration to 1x. […]

RIPK1 [2] = target: T3, RIPK1 (Mus musculus, UniProt Q60855); assay: RIPK1 degradation in B16F10 mouse melanoma cells, Western blotting; type: cell-based; design: Quantification of RIPK1 levels in both Jurkat and B16F10 cells; endogenous in cells; host or cells: B16F10; conditions: pre-treatment 4 hours, then LD4172 4 hours
T3 sequence (Q60855 1-656): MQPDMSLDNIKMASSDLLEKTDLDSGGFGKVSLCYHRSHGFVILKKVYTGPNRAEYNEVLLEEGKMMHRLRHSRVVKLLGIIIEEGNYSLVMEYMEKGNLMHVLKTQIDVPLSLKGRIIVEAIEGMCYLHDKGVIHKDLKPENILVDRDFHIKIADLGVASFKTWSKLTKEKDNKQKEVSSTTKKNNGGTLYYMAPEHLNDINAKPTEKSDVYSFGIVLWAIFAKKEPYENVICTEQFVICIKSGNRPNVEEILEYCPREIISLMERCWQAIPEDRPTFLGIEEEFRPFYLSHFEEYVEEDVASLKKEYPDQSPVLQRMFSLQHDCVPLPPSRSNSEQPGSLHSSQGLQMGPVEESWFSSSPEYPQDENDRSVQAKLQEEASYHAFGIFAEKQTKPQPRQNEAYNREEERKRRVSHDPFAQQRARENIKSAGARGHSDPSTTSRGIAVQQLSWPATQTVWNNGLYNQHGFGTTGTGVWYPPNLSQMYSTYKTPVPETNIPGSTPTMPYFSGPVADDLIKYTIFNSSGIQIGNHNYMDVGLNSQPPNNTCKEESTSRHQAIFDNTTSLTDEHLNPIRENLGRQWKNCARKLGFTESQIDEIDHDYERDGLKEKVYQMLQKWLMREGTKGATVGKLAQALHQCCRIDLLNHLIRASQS
Source text: (§1) Figure 1 Design and screen of RIPK1 PROTACs. A, Chemical structure and docking modeling of type II inhibitor 1 with the kinase domain of RIPK1 (PDB: 4NEU). The group exposed to solvent region is highlighted with yellow circle. B, Chemical structure and co-crystal structure of type III inhibitor 2 in complex with RIPK1 (PDB: 6R5F). The solventexposed group of inhibitor 2 is highlighted with yellow circle. C, A small library design of RIPK1 PROTACs. Either Type II inhibitor 1 or type III inhibitor 2 is conjugated with various E3 ligase ligands or adamantane tag to generate a small library of RIPK1 PROTACs. D, Quantification of RIPK1 levels in Jurkat cells treated with indicated compounds for 24 h at 0, 0.1, 1 and 10 μM, followed by Western blotting. E, Quantification of D. F, Quantification of RIPK1 levels in both Jurkat and B16F10 cells treated with type II inhibitor-based PROTACs with different linker lengths for 24 h, followed by Western blotting. G, Quantification of F.
(§2) Figure 2 LD4172, a RIPK1 PROTAC, induces potent and highly specific degradation of RIPK1 in a panel of cell lines. […] B, Quantification of RIPK1 levels in both Jurkat and B16F10 cells treated with LD4172 at indicated concentrations for 24 h, followed by Western blotting. […] G, Time-resolved fluorescence resonance energy transfer (TR-FRET) based biochemical binding assay for RIPK1. […]

RIPK1 [3] = target: T4, RIPK1 (Homo sapiens, UniProt Q13546); assay: RIPK1 degradation in Jurkat cells, Western blotting; type: cell-based; conditions: pre-treatment 4 hours, then LD4172 4 hours
T4 construct: Quantification of RIPK1 levels in Jurkat cells treated with indicated compounds for 24 h; endogenous in cells; host or cells: Jurkat
T4 sequence (Q13546 1-671): T1 sequence (Q13546 1-671)
Source text: as §1, §2

Compound | target engagement (TE) compared with LD4172 [1] | IC50 ([1]; HEK293 cells, tracer 500 nM, n=3, read-out: IC50 (nM), Fig. 2F) | ternary complex formation, NanoBRET between RIPK1 and VHL (RIPK1 and VHL) | effect on RIPK1 degradation by LD4172 (RIPK1 [2]) | effect on RIPK1 degradation by LD4172 (RIPK1 [3])
Cc1ncsc1-c1ccc([C@H](C)NC(=O)[C@H]2C[C@H](O)CN2C(=O)[C@@H](NC(=O)CCCCCCCCCCC(=O)NCCCn2cc(-c3ccc4c(c3)CCN4C(=O)Cc3cccc(OC(F)(F)F)c3)c3c(N)ncnc32)C(C)(C)C)cc1 [LD4172-NC] | TE similar to that of LD4172 | 1850 nM | not |  | 
NS(=O)(=O)OC[C@@H]1C[C@@H](n2ccc3c(N[C@H]4CCc5ccccc54)ncnc32)C[C@@H]1O [MLN4924] |  |  |  | reversed | reversed
CC(C)C[C@H](NC(=O)[C@H](CCc1ccccc1)NC(=O)CN1CCOCC1)C(=O)N[C@@H](Cc1ccccc1)C(=O)N[C@@H](CC(C)C)C(=O)[C@@]1(C)CO1 [carfilzomib] |  |  |  | reversed | reversed
